Reference: US9981945B2, “Pyrimidine derivatives as CFTR modulators” (NuBridge BioSciences, priority 2015, dated 2018)

Target: T1, ΔF508 mutant CFTR (Homo sapiens, UniProt P13569, DEL508-508)
T1 construct: expressed in transfected cells; host or cells: Fischer rat thyroid (FRT) cells
Assay: Fluorescence (YFP halide quenching) assay of ΔF508 mutant CFTR activity in FRT cells
Assay type: cell-based
Parameters: key: fold of mean activity with forskolin alone (I− quenching rate)
Conditions: FRT cells expressing ΔF508-CFTR and YFP-H148Q/I152L, rescued at 27° C. 20-24 h; forskolin 20 μM + test compound 20 μM for 20 min; I− influx rate normalized to forskolin alone
Excerpt: The ΔF508 mutant CFTR activities of the CFTR modulators are detected using the Fluorescence Assay developed by Pedemonte (Pedemonte N., et al., Antihypertensive 1,4-dihydropyridines as correctors of the cystic fibrosis transmembrane conductance regulator channel gating defect caused by cystic fibrosis mutations, Mol. Pharmacol., 2005, 68, 1736-1746).
Fischer rat thyroid (FRT) cells, stably transfected with ΔF508 were retransfected with the YFP-H148Q/I152L fluorescent protein. The cells were plated (100,000 cells/well) on black 96-well microplates with clear plastic bottom (Corning Life Sciences, Acton, Mass.).
The 96-well microplates containing FRT cells expressing F508-CFTR and the halide-sensitive YFP were incubated at 27° C. for 20 to 24 h to allow rescue of the mutant protein to the plasma membrane. After incubation, cells were washed with PBS (containing 137 mM NaCl, 2.7 mM KCl, 8.1 mM Na2HPO4, 1.5 mM KH2PO4, 1 mM CaCl2, and 0.5 mM MgCl2) and stimulated for 20 min with forskolin (20 μM) and test compounds (20 μM) in a final volume of 60 μl. Microplates were then transferred to a microplate reader for CFTR activity determination. Each assay consisted of a continuous 14-s fluorescence reading (5 points per second) with 2 s before and 12 s after injection of 165 μl of an iodide-containing solution (PBS with Cl^− replaced by I^−). Final iodide concentration in the wells was 100 mM. […] To determine I^− influx rate, the final 11 s of the data for each well were fitted with an exponential function to extrapolate initial slope. CFTR activity was determined by measuring the rate of fluorescence quenching induced by extracellular addition of I^−. Data are normalized to the mean activity measured in the presence of forskolin alone.

T1 sequence (P13569 with tags, fused parts or gaps DEL508-508): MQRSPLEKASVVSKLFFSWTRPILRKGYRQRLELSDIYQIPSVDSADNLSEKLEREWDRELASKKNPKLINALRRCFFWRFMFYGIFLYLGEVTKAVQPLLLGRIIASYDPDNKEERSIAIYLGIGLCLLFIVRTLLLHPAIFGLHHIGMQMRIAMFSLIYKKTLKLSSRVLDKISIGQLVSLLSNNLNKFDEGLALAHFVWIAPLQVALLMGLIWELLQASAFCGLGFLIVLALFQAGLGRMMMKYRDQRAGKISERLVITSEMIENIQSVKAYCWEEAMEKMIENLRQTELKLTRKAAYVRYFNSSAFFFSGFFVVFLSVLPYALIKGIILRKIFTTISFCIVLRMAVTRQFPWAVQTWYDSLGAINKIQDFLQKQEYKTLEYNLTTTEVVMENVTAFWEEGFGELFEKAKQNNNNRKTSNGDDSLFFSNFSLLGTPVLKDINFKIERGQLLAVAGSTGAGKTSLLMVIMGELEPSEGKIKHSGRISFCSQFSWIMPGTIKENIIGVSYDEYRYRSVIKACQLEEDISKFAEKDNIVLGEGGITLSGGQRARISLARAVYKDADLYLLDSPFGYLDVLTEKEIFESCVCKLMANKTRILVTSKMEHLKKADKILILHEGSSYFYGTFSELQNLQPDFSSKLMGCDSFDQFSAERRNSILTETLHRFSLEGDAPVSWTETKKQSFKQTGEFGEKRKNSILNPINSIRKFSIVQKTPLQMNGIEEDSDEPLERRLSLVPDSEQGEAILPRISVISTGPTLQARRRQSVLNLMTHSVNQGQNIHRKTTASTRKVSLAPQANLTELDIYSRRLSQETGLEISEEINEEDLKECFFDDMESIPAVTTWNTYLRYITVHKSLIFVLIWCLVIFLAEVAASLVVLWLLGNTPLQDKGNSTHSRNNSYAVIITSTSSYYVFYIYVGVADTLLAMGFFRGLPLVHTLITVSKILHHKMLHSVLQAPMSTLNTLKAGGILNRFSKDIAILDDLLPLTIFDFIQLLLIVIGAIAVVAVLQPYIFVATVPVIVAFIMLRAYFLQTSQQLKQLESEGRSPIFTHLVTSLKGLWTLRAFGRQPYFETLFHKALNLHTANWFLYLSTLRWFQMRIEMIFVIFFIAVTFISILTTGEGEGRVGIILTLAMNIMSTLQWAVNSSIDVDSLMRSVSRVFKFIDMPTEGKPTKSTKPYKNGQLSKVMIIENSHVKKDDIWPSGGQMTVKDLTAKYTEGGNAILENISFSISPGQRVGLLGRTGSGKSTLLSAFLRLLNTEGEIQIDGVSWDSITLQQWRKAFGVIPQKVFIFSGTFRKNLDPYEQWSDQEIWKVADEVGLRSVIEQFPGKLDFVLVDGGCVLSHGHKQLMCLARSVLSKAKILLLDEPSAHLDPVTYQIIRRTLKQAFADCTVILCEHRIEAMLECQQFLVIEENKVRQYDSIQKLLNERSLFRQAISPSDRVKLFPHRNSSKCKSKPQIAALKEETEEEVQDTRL

Row | CFTR Activity | Compound
1 | 4.0 | Cl.Nc1cc(F)c(-c2c(F)cccc2F)nc1C(=O)Nc1cncnc1OC1CCCNCC1 (stereo not shown) [Example 26, 3-amino-N-(4-(azepan-4-yloxy)pyrimidin-5-yl)-6-(2,6-difluorophenyl)-5-fluoropicolinamide hydrochloride]
2 | 1.5 | Cl.NCC(CCl)COc1ncncc1NC(=O)c1ccc(F)c(-c2c(F)cccc2F)n1 (stereo not shown) [Example 30, N-(4-(3-amino-2-(chloromethyl)propoxy)pyrimidin-5-yl)-6-(2,6-difluorophenyl)-5-fluoropicolinamide hydrochloride]
3 | 1.9 | Cl.NC1CCC(Oc2ncncc2NC(=O)c2ccc(F)c(-c3c(F)cccc3F)n2)CC1 (stereo not shown) [Example 10, N-(4-(((1r,4r)-4-aminocyclohexyl)oxy)pyrimidin-5-yl)-6-(2,6-difluorophenyl)-5-fluoropicolinamide hydrochloride]
4 | 1.8 | Cl.O=C(Nc1cncnc1OCC1CNC1)c1ccc(C(F)(F)F)c(-c2c(F)cccc2F)n1 [Example 44, N-(4-(azetidin-3-ylmethoxy)pyrimidin-5-yl)-6-(2,6-difluorophenyl)-5-(trifluoromethyl)picolinamide hydrochloride]
5 | 1.2 | Cl.O=C(Nc1cncnc1OCC1CCNCC1)c1ccc(F)c(-c2c(F)cccc2F)n1 [Example 1, 6-(2,6-difluorophenyl)-5-fluoro-N-(4-(piperidin-4-ylmethoxy)pyrimidin-5-yl)picolinamide hydrochloride]
6 | 4.1 | Cl.Nc1cc(C(F)(F)F)c(-c2c(F)cccc2F)nc1C(=O)Nc1cncnc1OC1CCCNCC1 (stereo not shown) [Example 48, 3-amino-N-(4-(azepan-4-yloxy)pyrimidin-5-yl)-6-(2,6-difluorophenyl)-5-(trifluoromethyl)picolinamide hydrochloride]
7 | 0.1 | O=C(Nc1cncnc1OCC1CCOCC1)c1ccc(F)c(-c2c(F)cccc2F)n1 [Example 22, 6-(2,6-difluorophenyl)-5-fluoro-N-(4-((tetrahydro-2H-pyran-4-yl)methoxy)pyrimidin-5-yl)picolinamide]
8 | 1.3 | Cl.O=C(Nc1cncnc1OCC1CCNCC1)c1ccc(C(F)(F)F)c(-c2c(F)cccc2F)n1 [Example 43, 6-(2,6-difluorophenyl)-N-(4-(piperidin-4-ylmethoxy)pyrimidin-5-yl)-5-(trifluoromethyl)picolinamide hydrochloride]
9 | 0.2 | O=C(Nc1cncnc1OCCCO)c1ccc(F)c(-c2c(F)cccc2F)n1 [Example 17, 6-(2,6-difluorophenyl)-5-fluoro-N-(4-(3-hydroxypropoxy)pyrimidin-5-yl)picolinamide]
10 | 0.7 | Cl.NCCCOc1ncncc1NC(=O)c1ccc(F)c(-c2c(F)cccc2F)n1 [Example 12, N-(4-(3-aminopropoxy)pyrimidin-5-yl)-6-(2,6-difluorophenyl)-5-fluoropicolinamide hydrochloride]
11 | 2.8 | Cl.NCC(CO)COc1ncncc1NC(=O)c1ccc(C(F)(F)F)c(-c2c(F)cccc2F)n1 (stereo not shown) [Example 58, N-(4-(3-amino-2-(hydroxymethyl)propoxy)pyrimidin-5-yl)-6-(2,6-difluorophenyl)-5-(trifluoromethyl)picolinamide hydrochloride]
12 | 2.0 | Cl.NCC(CCl)COc1ncncc1NC(=O)c1ccc(C(F)(F)F)c(-c2c(F)cccc2F)n1 (stereo not shown) [Example 54, N-(4-(3-amino-2-(chloromethyl)propoxy)pyrimidin-5-yl)-6-(2,6-difluorophenyl)-5-(trifluoromethyl)picolinamide hydrochloride]
13 | 0.7 | Cl.O=C(Nc1cncnc1OC1CCNC1)c1ccc(F)c(-c2c(F)cccc2F)n1 (stereo not shown) [Example 4, 6-(2,6-difluorophenyl)-5-fluoro-N-(4-(pyrrolidin-3-yloxy)pyrimidin-5-yl)picolinamide hydrochloride]
14 | 3.1 | Cl.Nc1cc(F)c(-c2c(F)cccc2F)nc1C(=O)Nc1cncnc1OC1CCNCC1 [Example 25, 3-amino-6-(2,6-difluorophenyl)-5-fluoro-N-(4-(piperidin-4-yloxy)pyrimidin-5-yl)picolinamide hydrochloride]

More lines, now with the values behind:

Row | Compound | CFTR Activity
15 | Cl.NCCCCOc1ncncc1NC(=O)c1nc(-c2c(F)cccc2F)c(F)cc1N [Example 36, 3-amino-N-(4-(4-aminobutoxy)pyrimidin-5-yl)-6-(2,6-difluorophenyl)-5-fluoropicolinamide] | 2.4
16 | COc1cccc(F)c1-c1nc(C(=O)Nc2cncnc2OC2CCCNCC2)ccc1F.Cl (stereo not shown) [Example 41, N-(4-(azepan-4-yloxy)pyrimidin-5-yl)-5-fluoro-6-(2-fluoro-6-methoxyphenyl)picolinamide hydrochloride] | 1.8
17 | Cl.NCC(CO)COc1ncncc1NC(=O)c1ccc(F)c(-c2c(F)cccc2F)n1 (stereo not shown) [Example 56, N-(4-(3-amino-2-(hydroxymethyl)propoxy)pyrimidin-5-yl)-6-(2,6-difluorophenyl)-5-fluoropicolinamide hydrochloride] | 2.5
18 | CN(C)CCCOc1ncncc1NC(=O)c1ccc(F)c(-c2c(F)cccc2F)n1.Cl [Example 14, 6-(2,6-difluorophenyl)-N-(4-(3-(dimethylamino)propoxy)pyrimidin-5-yl)-5-fluoropicolinamide hydrochloride] | 0.2
19 | Cl.O=C(Nc1cncnc1OC1CCNCC1)c1ccc(F)c(-c2c(F)cccc2F)n1 [Example 3, 6-(2,6-difluorophenyl)-5-fluoro-N-(4-(piperidin-4-yloxy)pyrimidin-5-yl)picolinamide hydrochloride] | 1.3
20 | CC(O)CCOc1ncncc1NC(=O)c1ccc(F)c(-c2c(F)cccc2F)n1 (stereo not shown) [Example 18, 6-(2,6-difluorophenyl)-5-fluoro-N-(4-(3-hydroxybutoxy)pyrimidin-5-yl)picolinamide] | 0.2
21 | Cl.NCC(CO)COc1ncncc1NC(=O)c1nc(-c2c(F)cccc2F)c(F)cc1N (stereo not shown) [Example 57, 3-amino-N-(4-(3-amino-2-(hydroxymethyl)propoxy)pyrimidin-5-yl)-6-(2,6-difluorophenyl)-5-fluoropicolinamide hydrochloride] | 2.1
22 | Cl.NCC(CCl)COc1ncncc1NC(=O)c1nc(-c2c(F)cccc2F)c(F)cc1N (stereo not shown) [Example 34, 3-amino-N-(4-(3-amino-2-(chloromethyl)propoxy)pyrimidin-5-yl)-6-(2,6-difluorophenyl)-5-fluoropicolinamide hydrochloride] | 2.0
23 | Cl.NC1CCCC(Oc2ncncc2NC(=O)c2ccc(C(F)(F)F)c(-c3c(F)cccc3F)n2)C1 (stereo not shown) [Example 60, N-(4-((3-aminocyclohexyl)oxy)pyrimidin-5-yl)-6-(2,6-difluorophenyl)-5-(trifluoromethyl)picolinamide hydrochloride] | 4.8
24 | O=C(Nc1cncnc1OCCC(O)CO)c1ccc(F)c(-c2c(F)cccc2F)n1 (stereo not shown) [Example 21, 6-(2,6-difluorophenyl)-N-(4-(3,4-dihydroxybutoxy)pyrimidin-5-yl)-5-fluoropicolinamide] | 0.05
25 | Cl.O=C(Nc1cncnc1OC1CCCNC1)c1ccc(F)c(-c2c(F)cccc2F)n1 (stereo not shown) [Example 5, 6-(2,6-difluorophenyl)-5-fluoro-N-(4-(piperidin-3-yloxy)pyrimidin-5-yl)picolinamide hydrochloride] | 0.6
26 | Cl.Nc1cc(F)c(-c2c(F)cccc2F)nc1C(=O)Nc1cncnc1OC1CNC1 [Example 31, 3-amino-N-(4-(azetidin-3-yloxy)pyrimidin-5-yl)-6-(2,6-difluorophenyl)-5-fluoropicolinamide hydrochloride] | 1.0
27 | Cl.Nc1cc(C(F)(F)F)c(-c2ccccc2)nc1C(=O)Nc1cncnc1OC1CCNC1 (stereo not shown) [Example 53, 3-amino-6-phenyl-N-(4-(pyrrolidin-3-yloxy)pyrimidin-5-yl)-5-(trifluoromethyl)picolinamide hydrochloride] | 2.4
28 | CNCCCCOc1ncncc1NC(=O)c1ccc(F)c(-c2c(F)cccc2F)n1.Cl [Example 16, 6-(2,6-difluorophenyl)-5-fluoro-N-(4-(4-(methylamino)butoxy)pyrimidin-5-yl)picolinamide hydrochloride] | 0.5
29 | Cl.O=C(Nc1cncnc1OCC1CCCNC1)c1ccc(F)c(-c2c(F)cccc2F)n1 (stereo not shown) [Example 7, 6-(2,6-difluorophenyl)-5-fluoro-N-(4-(piperidin-3-ylmethoxy)pyrimidin-5-yl)picolinamide hydrochloride] | 0.5
30 | Cl.Nc1cc(F)c(-c2c(F)cccc2F)nc1C(=O)Nc1cncnc1OCC1CCNC1 (stereo not shown) [Example 28] | 2.3
31 | Cl.O=C(Nc1cncnc1OCC1CCNC1)c1ccc(F)c(-c2c(F)cccc2F)n1 (stereo not shown) [Example 8, 6-(2,6-difluorophenyl)-5-fluoro-N-(4-(pyrrolidin-3-ylmethoxy)pyrimidin-5-yl)picolinamide hydrochloride] | 0.6
